From patent publication US10532084B2, “Chondrocyte extracellular matrix-derived peptide” (EYEBIO KOREA, priority 2016, dated 2020)
Entries after “also recorded” stand apart in the source; their conditions may differ.

Tests used:
[1] = tested on: choroidal neovascularization (CNV); assay: Laser-induced choroidal neovascularization (CNV), lesion size by retina-choroid flat-mount; assay type: in vivo, C57BL/6 mice; conditions: mouse, laser irradiation; 2 μg intraocular injection for 5 days
Procedure: C57BL/6 mice were purchased from Orient Bio and the animal experiments was carried out in accordance with the guidelines approved by the University of Inje (No, 2013-053) and ARVO regarding animal use for eye and vision studies. 6-week-old C57BL/6 mice were treated with diode green laser (532 nm, 150 mW, 0.1 sec, […], photocoagulator) to damage the retinal optic nerve area. […] The above experiment for each experiment group was performed using both eyes of five mice each. […]
The mouse was anesthetized and injected with 25 mg/ml of FITC-dextran in […] of retro-orbital. After 30 minutes, the mouse was euthanized and the eyeball was extracted and fixed with 10% formalin and then, the cornea and lens were removed and flat mounted on the cover glass. The neovasculature stained with FITC-dextran was observed by fluorescence microscopy (Leica) and the lesion size was measured by Image J program. […]

[2] = tested on: human vascular endothelial cells (HUVEC); assay: Tubing assay (VEGF-induced tube formation); assay type: cell-based; conditions: 50 ng/ml recombinant human VEGF, 4 hours
Procedure: The antiangiogenic effect of hydroxy proline-GQDGLAGPK was confirmed by tubing assay using human vascular endothelial cells (HUVEC).
HUVEC cells were stained with calcein-AM and then dispensed on a Matrigel-coated 48-well plate, treated with collagen, CPI and CPII at concentrations together with 50 ng/ml of recombinant human VEGF, and after 4 hours of incubation at 37° C., tube formation was observed by fluorescence microscopy (Leica) and tube length was analyzed by Image lab software (Bio-Rad Laboratories).
Tubing assay using human vascular endothelial cells (HUVEC) was performed to confirm the anti-angiogenic effect of hydroxyl proline-GQDGLAGPK.

corneal surface = assay: Corneal surface irregularity (smoothness) score, dry eye model; assay type: in vivo, NOD.B10.H2b mice; conditions: day 10 after removal of dry stress; grades 0-5; normal 0.33±0.58, DS 10D 4.33±0.58
Procedure: (§1) NOD.B10.H2^b mice were purchased from Jackson Laboratory (Bar Harbor, Me., USA). Animal experiments were carried out in accordance with the guidelines approved by the University of Inje (No.; 2014-029) and ARVO regarding animal use for eye and vision research. NOD.B10.H2^b mice at 12-16 weeks old were exposed to 40-50% ambient humidity and ventilation using a fan for 18 hours a day as dry stress and subcutaneously injected with 0.5 mg/0.2 mL muscarinic receptor blocker. In addition, scopolamine hydrobromide (Sigma-Aldrich, St. Louis, Mo.) was injected alternately to the […] hips four times a day for 10 days at 9 am, […].
(§2) After 10 days of ocular dry stress, the scopolamine injection was stopped, and switched to a normal humidity and temperature environment and the dry stress was removed, 10 mg/ml Hyp-[…] and collagen were dissolved in normal saline to administer 5 μL each 5 times a day for 10 days, and normal saline and 0.1% HA were administered to the eyeball 5 times a day for 10 days. Three mice were used in each of the six experimental groups using both eyes of the mice and all experiments were repeated.
As for the curvature of the corneal surface, a reflected image of the white ring was obtained from an optical fiber ring illumination of a stereoscopic microscope (SZX7; Olympus) after anesthetizing the animal. Corneal smoothness was assessed by grading the irregularity of corneal epithelial cells reflected in the white ring of the digital image. Corneal irregularity severity score was calculated by dividing the reflection ring into quadrants and grading into 5 grades according to degree of irregularity. No irregularity is grade 0, irregularity of ¼ (quarter) is grade 1; irregularity of 2/4 (two-quarters) is grade 2; irregularity of ¾ (three-quarters) is grade 3; entire irregularity is grade 4; and […] and thus all the rings were confirmed.
The degree of corneal curvature in each experiment group was quantified to confirm the bendability of the corneal surface.

corneal epithelial cell = assay: Corneal epithelial cell detachment (H&E), dry eye model; assay type: in vivo, NOD.B10.H2b mice; conditions: 10 days of treatment after removal of dry stress; DS 10D 2.29±0.57
Procedure: as §1, §2

[3] = tested on: conjunctival goblet cells; assay: Distribution of conjunctival goblet cells (PAS staining), dry eye model; assay type: in vivo, NOD.B10.H2b mice; conditions: 10 days of treatment after removal of dry stress; normal 14.38±0.44, DS 10D 6.02±0.29
Procedure: as §1, §2
The distribution of conjunctival goblet cells according to eye drop in dry eye mice was observed.

[4] = Tear amount by phenol red-impregnated cotton threads, dry eye model; assay type: in vivo, NOD.B10.H2b mice; conditions: 10 days of treatment after removal of dry stress; normal 0.22±0.01, DS 10D 0.03±0.01
Procedure: Tear production was measured by a method reported using phenol red-impregnated cotton threads (Zone-Quick, Oasis, Glendora, Calif.) (Villareal A L, Farley W, Pflugfelder S C. Effect of topical ophthalmic epinastine and olopatadine on tear volume in mice. Eye Contact Lens. 2006; 32 (6): 272-276.). […] The measured lachrymal fluid in the millimeter was compared with a standard curve expressed as a cotton thread which was soaked with the expected tear amount of mouse of basic solution ([…] of 0.9% salt and 5 mL of 5 N NaOH) for 20 seconds.
The degree of tear generation was measured by phenol red-impregnated cotton threads.

VEGF, ICAM and MCP-1 = assay: Quantitative real-time RT-PCR of retina and choroid, laser CNV model; assay type: in vivo, C57BL/6 mice; conditions: mouse, 14 days after laser; 5 μg; laser-treated group increased about 55 times
Procedure: In order to confirm the inhibitory effect of hydroxy proline-GQDGLAGPK on neovascularization-related gene expression, RNA was extracted using RNeasy Mini kit (Qiagen) in mixture of retina and choroid of extracted mice eyeballs, and cDNA was synthesized by using oligo(dT) primer and reverse transcriptase. PCR products were amplified using the specific primer set (COSMOGENETECH, Korea) shown in Table 1 and SYBR Green PCR 2X PreMix (Enzynomics) and for the PCR conditions, the samples were incubated at 95° C. for 10 minutes, and 40 PCR cycles at 95° C. for 15 seconds, 60° C. for 30 seconds and 72° C. for 15 seconds, were performed. Relative quantification was calculated using 2-(DDCT) method [Livak and Schmittgen, 2001; DDCT=(CT, target-CT, actin) control group (CT, target-CT, actin) control group].
After 14 days of laser irradiation in mouse, RNA was extracted from retina and choroid to analyze the gene expression by real-time RT-PCR.

Row | Molecule | CNV lesions [1] | inhibition of tube formation (angiogenesis) [2] | degree of curvature (irregularity score) of the corneal surface (corneal surface) [points] | corneal epithelial cell detachment (corneal epithelial cell) | conjunctival goblet cells [3] | tear amount [4] [µL] | VEGF gene expression in retina and choroid (VEGF, ICAM and MCP-1)
1 | GDRGD [CPI] | reduced; also recorded: decreased | significant inhibition of angiogenesis | – | – | – | – | –
2 | O=c1ccn([C@@H]2O[C@H](COP(=O)([O-])OP(=O)([O-])OP(=O)([O-])OP(=O)([O-])OC[C@H]3O[C@@H](n4ccc(=O)[nH]c4=O)[C@H](O)[C@@H]3O)[C@@H](O)[C@H]2O)c(=O)[nH]1.[Na+].[Na+].[Na+].[Na+] [DQS, reference compound] | – | – | 3.0±1.0 | 0.095±0.17 /0.1 mm^2 | 8.86±0.29 /0.1 mm^2 | 0.16 ± 0.02 | –
3 | collagen [reference compound] | reduced; also recorded: decreased | significant inhibition of angiogenesis | 3.67±1.16 | 0.86±0.29 /0.1 mm^2 | 11.05±0.33 /0.1 mm^2 | 0.13 ± 0.02 | –
4 | Avastin: a remedy of an age-related macular degeneration; positive control [reference compound] | – | – | – | – | – | – | decreased to the level similar to that of the laser-untreated group
